biological target: MAPK14 (UniProt Q16539); assay: Inhibition of MAPK14 Kinase Activity
Sequence (Q16539 whole entry, looked up): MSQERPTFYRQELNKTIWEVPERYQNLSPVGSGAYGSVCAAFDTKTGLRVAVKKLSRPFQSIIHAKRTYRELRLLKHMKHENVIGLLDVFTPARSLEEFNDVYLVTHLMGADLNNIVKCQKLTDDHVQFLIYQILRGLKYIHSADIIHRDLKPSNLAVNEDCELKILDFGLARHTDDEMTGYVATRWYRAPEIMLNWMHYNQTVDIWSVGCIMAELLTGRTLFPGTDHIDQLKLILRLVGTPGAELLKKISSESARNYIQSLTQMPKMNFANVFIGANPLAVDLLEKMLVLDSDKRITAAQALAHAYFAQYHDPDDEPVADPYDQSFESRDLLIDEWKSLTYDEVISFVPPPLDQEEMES

Q: With `Cc1cccc(S(=O)(=O)n2ncc3cc(-c4cc(C(=O)NC5CC5)cc(F)c4C)ccc32)c1` as the compound, how does the IC50 read?
A: The IC50 was < 10 µM.

Q: With `Cc1c(F)cc(C(=O)NC2CC2)cc1-c1ccc2c(cnn2S(=O)(=O)/C=C/c2ccccc2)c1` as the compound, how does the IC50 read?
A: Its IC50 is < 10 µM.

Q: Which IC50 does the source give for `Cc1ccc(C(=O)NC2CC2)cc1-c1ccc2cn[nH]c2c1` here?
A: Its IC50 is < 10 µM.

Q: How did the IC50 turn out when `Cc1ccc(C(=O)NC2CC2)cc1-c1ccc2c(cnn2S(=O)(=O)C(C)C)c1` was run?
A: The IC50 was < 10 µM.

Q: `Cc1ccc(NC(=O)c2ccoc2)cc1-c1ccc2c(C3CCNCC3)noc2c1` was tested. Which IC50 did it give?
A: Its IC50 is < 10 µM.

Q: `Cc1ccc(C(=O)NC2CC2)cc1-c1ccc2c(cnn2S(=O)(=O)c2ccc(F)c(F)c2)c1` was tested. Which IC50 did it give?
A: Its IC50 is < 10 µM.

Q: Which IC50 does the source give for `CCS(=O)(=O)n1ncc2cc(-c3cc(C(=O)NC4CC4)ccc3C)ccc21` here?
A: Its IC50 is < 10 µM.

Q: Which IC50 does the source give for `Cc1ccc(C(=O)NC2CC2)cc1-c1ccc2c(cnn2CC(=O)NC(C)C)c1` here?
A: The IC50 was < 10 µM.

Q: How did the IC50 turn out when `Cc1ccc(C(=O)NC2CC2)cc1-c1ccc2c(cnn2S(=O)(=O)c2ccccc2F)c1` was run?
A: Its IC50 is < 10 µM.

Q: Which IC50 does the source give for `Cc1ccc(CNC(=O)Cn2ncc3cc(-c4cc(C(=O)NC5CC5)cc(F)c4C)ccc32)cc1` here?
A: The IC50 was < 10 µM.

Q: Which IC50 does the source give for `Cc1ccc(C(=O)NC2CC2)cc1-c1ccc2c(C3CCNCC3)noc2c1` here?
A: Its IC50 is < 10 µM.

Q: For `Cc1ccc(C(=O)NC2CC2)cc1-c1ccc2c(N)noc2c1`, which IC50 is on record?
A: The IC50 was < 10 µM.

Q: Which IC50 does the source give for `Cc1ccc(C(=O)NCC2CC2)cc1-c1ccc2c(C3CCNCC3)noc2c1` here?
A: The IC50 was < 10 µM.

Q: Which IC50 does the source give for `Cc1c(F)cc(C(=O)NC2CC2)cc1-c1ccc2c(cnn2S(=O)(=O)c2cccc(F)c2)c1` here?
A: The IC50 was < 10 µM.

Q: Which IC50 does the source give for `Cc1ccc(C(=O)NC2CC2)cc1-c1ccc2c(CC(=O)NCCCO)noc2c1` here?
A: Its IC50 is < 10 µM.

Q: Which IC50 does the source give for `Cc1c(F)cc(C(=O)NC2CC2)cc1-c1ccc2c(cnn2S(=O)(=O)c2ccccc2Cl)c1` here?
A: The IC50 was < 10 µM.

Q: With `CCCNC(=O)Cn1ncc2cc(-c3cc(C(=O)NC4CC4)ccc3C)ccc21` as the compound, how does the IC50 read?
A: Its IC50 is < 10 µM.

Q: With `COc1cccc(S(=O)(=O)n2ncc3cc(-c4cc(C(=O)NC5CC5)cc(F)c4C)ccc32)c1` as the compound, how does the IC50 read?
A: Its IC50 is < 10 µM.

Q: `Cc1ccc(C(=O)NC2CC2)cc1-c1ccc2c(cnn2CC(=O)N2CCOCC2)c1` was tested. Which IC50 did it give?
A: The IC50 was < 10 µM.

Q: `Cc1ccc(C(=O)NC2CC2)cc1-c1ccc2c(cnn2S(=O)(=O)c2ccc(C(F)(F)F)cc2)c1` was tested. Which IC50 did it give?
A: The IC50 was < 10 µM.

Q: With `Cc1c(F)cc(C(=O)NC2CC2)cc1-c1ccc2c(cnn2S(C)(=O)=O)c1` as the compound, how does the IC50 read?
A: Its IC50 is < 10 µM.

Q: For `Cc1c(F)cc(C(=O)NC2CC2)cc1-c1ccc2c(cnn2S(=O)(=O)C2CC2)c1`, which IC50 is on record?
A: The IC50 was < 10 µM.

Q: For `Cc1c(F)cc(C(=O)NC2CC2)cc1-c1ccc2c(cnn2CC(=O)NCC(C)(C)C)c1`, which IC50 is on record?
A: The IC50 was < 10 µM.

Q: With `Cc1ccc(C(=O)NC2CC2)cc1-c1ccc2c(CC(=O)N3CCCC3)noc2c1` as the compound, how does the IC50 read?
A: The IC50 was < 10 µM.

Q: For `Cc1c(F)cc(C(=O)NC2CC2)cc1-c1ccc2c(C(=O)NC3CC3)noc2c1`, which IC50 is on record?
A: Its IC50 is < 10 µM.

Q: For `Cc1c(F)cc(C(=O)NC2CC2)cc1-c1ccc2c(cnn2S(=O)(=O)c2ccsc2)c1`, which IC50 is on record?
A: Its IC50 is < 10 µM.

Q: `Cc1ccc(C(=O)NC2CC2)cc1-c1ccc2c(cnn2S(C)(=O)=O)c1` was tested. Which IC50 did it give?
A: The IC50 was < 10 µM.

Q: With `Cc1ccc(C(=O)NC2CC2)cc1-c1ccc2c(cnn2S(=O)(=O)c2cccc3nonc23)c1` as the compound, how does the IC50 read?
A: Its IC50 is < 10 µM.

Q: For `Cc1c(F)cc(C(=O)NC2CC2)cc1-c1ccc2c(NC3CC3)noc2c1`, which IC50 is on record?
A: The IC50 was < 10 µM.

Q: How did the IC50 turn out when `Cc1ccc(NC(=O)c2ccnc(N3CCCC3)c2)cc1-c1ccc2onc(C)c2c1` was run?
A: The IC50 was < 10 µM.

Q: `Cc1c(F)cc(C(=O)NC2CC2)cc1-c1ccc2c(cnn2S(=O)(=O)C(C)C)c1` was tested. Which IC50 did it give?
A: Its IC50 is < 10 µM.

Q: Which IC50 does the source give for `Cc1ccc(S(=O)(=O)n2ncc3cc(-c4cc(C(=O)NC5CC5)cc(F)c4C)ccc32)cc1` here?
A: The IC50 was < 10 µM.

Q: `Cc1c(F)cc(C(=O)NC2CC2)cc1-c1ccc2c(cnn2S(=O)(=O)c2ccccc2F)c1` was tested. Which IC50 did it give?
A: Its IC50 is < 10 µM.

Q: How did the IC50 turn out when `Cc1c(F)cc(C(=O)NC2CC2)cc1-c1ccc2c(cnn2S(=O)(=O)c2ccc3c(c2)CCO3)c1` was run?
A: The IC50 was < 10 µM.

Q: How did the IC50 turn out when `Cc1c(F)cc(C(=O)NC2CC2)cc1-c1ccc2c(cnn2S(=O)(=O)c2cccs2)c1` was run?
A: Its IC50 is < 10 µM.

Q: With `Cc1c(F)cc(C(=O)NC2CC2)cc1-c1ccc2c(cnn2S(=O)(=O)c2ccccc2)c1` as the compound, how does the IC50 read?
A: The IC50 was < 10 µM.

Q: For `CCCNC(=O)c1noc2cc(-c3cc(C(=O)NC4CC4)cc(F)c3C)ccc12`, which IC50 is on record?
A: The IC50 was < 10 µM.

Q: Which IC50 does the source give for `CCCCc1ccc(S(=O)(=O)n2ncc3cc(-c4cc(C(=O)NC5CC5)cc(F)c4C)ccc32)cc1` here?
A: Its IC50 is < 10 µM.

Q: `Cc1c(F)cc(C(=O)NC2CC2)cc1-c1ccc2c(cnn2C(=O)OC(C)(C)C)c1` was tested. Which IC50 did it give?
A: Its IC50 is < 10 µM.

Q: Which IC50 does the source give for `COc1ccc(CNC(=O)Cn2ncc3cc(-c4cc(C(=O)NC5CC5)cc(F)c4C)ccc32)cc1` here?
A: The IC50 was < 10 µM.

Q: Which IC50 does the source give for `Cc1ccc(C(=O)NC2CC2)cc1-c1ccc2c(cnn2S(=O)(=O)c2ccc3c(c2)CCO3)c1` here?
A: The IC50 was < 10 µM.

Q: For `COc1ccc(CNC(=O)Cn2ncc3cc(-c4cc(C(=O)NC5CC5)ccc4C)ccc32)cc1`, which IC50 is on record?
A: The IC50 was < 10 µM.

Q: `Cc1c(F)cc(C(=O)NC2CC2)cc1-c1ccc2c(cnn2S(=O)(=O)c2cccc(Cl)c2)c1` was tested. Which IC50 did it give?
A: The IC50 was < 10 µM.

Q: With `Cc1ccc(C(=O)NC2CC2)cc1-c1ccc2c(CC(=O)N3CCOCC3)noc2c1` as the compound, how does the IC50 read?
A: Its IC50 is < 10 µM.

— the Kinase Knowledgebase extract (Sharma et al. 2016)
